Measurements taken from patent US9862726B2, “Opioid receptor modulating oxabicyclo[2.2.2]octane morphinans” (PURDUE PHARMA L.P., priority 2013, dated 2018).
Like-named read-outs stand apart in the source and are kept apart here.

Tests used:
[1] = target: T1, μ-opioid receptor (Homo sapiens (Human), UniProt P35372); test: μ-opioid receptor radioligand dose-displacement binding assay (HEK-293 cells)
Method: Radioligand dose-displacement binding assays for μ-opioid receptors used 0.3 nM [^3H]-diprenorphine (Perkin Elmer, Shelton, Conn.), with […] membrane protein/well in a final volume of 500 μl binding buffer (10 mM MgCl2, 1 mM EDTA, 5% DMSO, 50 mM HEPES, pH 7.4). Reactions were carried out in the absence or presence of increasing concentrations of unlabeled naloxone. All reactions were conducted in 96-deep well polypropylene plates for 2 hours at room temperature. Binding reactions were terminated by rapid filtration onto 96-well Unifilter GF/C filter plates (Perkin Elmer, Shelton, Conn.), presoaked in 0.5% polyethylenimine using a 96-well tissue harvester (Perkin Elmer, Shelton, Conn.) followed by performing three filtration washes with 500 μl of ice-cold binding buffer. Filter plates were subsequently dried at 50° C. for 2-3 hours. BetaScint scintillation cocktail (Perkin Elmer, Shelton, Conn.) was added (50 μl/well), and plates were counted using a Packard Top-Count for 1 min/well. The data were analyzed using the one-site competition curve fitting functions in GraphPad PRISM™ v. 3.0 or higher (San Diego, Calif.), or an in-house function for one-site competition curve-fitting.
(§1) In TABLE 3, binding affinity of certain Compounds of the Invention to the μ- and κ-opioid receptors was determined as described above using HEK-293 cells.

[2] = target: T1, μ-opioid receptor; test: μ-opioid receptor functional assay (U-2 OS cells); type: biochemical
Method: (§2) [^35S]GTPγS functional assays were conducted using freshly thawed μ-receptor membranes prepared in-house from a cell line expressing recombinant μ opioid receptor in a HEK-293, CHO or U-2 OS cell background, or purchased from a commercial source (Perkin Elmer, Shelton, Conn.; or DiscovRx, Fremont, Calif.). Assay reactions were prepared by sequentially adding the following reagents to binding buffer (100 mM NaCl, 10 mM MgCl2, 20 mM HEPES, pH 7.4) on ice (final concentrations indicated): membrane protein (0.026 mg/mL), saponin ([…]), GDP ([…]) and [^35S]GTPγS (0.20 nM; Perkin Elmer, Shelton, Conn.). The prepared membrane solution (190 μl/well) was transferred to 96-shallow well polypropylene plates containing 10 μl of 20× concentrated stock solutions of the agonist [D-Ala^2, N-methyl-Phe^4 Gly-ol^5]-enkephalin (DAMGO) prepared in dimethyl sulfoxide (DMSO). Plates were incubated for 30 min at about 25° C. with shaking. Reactions were terminated by rapid filtration onto 96-well Unifilter GF/B filter plates (Perkin Elmer, Shelton, Conn.) using a 96-well tissue harvester (Perkin Elmer, Shelton, Conn.) followed by three filtration washes with 200 μl of ice-cold wash buffer (10 mM NaH2PO4, 10 mM Na2HPO4, pH 7.4). Filter plates were subsequently dried at 50° C. for 2-3 hours. BetaScint scintillation cocktail (Perkin Elmer, Shelton, Conn.) was added (50 μl/well) and plates were counted using a Packard Top-Count for 1 min/well. Data were analyzed using the sigmoidal dose-response curve fitting functions in GraphPad PRISM v. 3.0, or an in-house function for non-linear, sigmoidal dose-response curve-fitting. [^35S]GTPγS functional assays can also be conducted using freshly thawed μ-receptor membranes prepared from a cell line expressing recombinant μ opioid receptor in a CHO-K1 cell background.
(§3) μ GTP EC50 is the concentration of a compound providing 50% of the maximal response for the compound at a μ-opioid receptor.
(§4) μ GTP Emax (%) is the maximal effect elicited by a compound relative to the effect elicited by DAMGO, a standard μ agonist.

[3] = target: T1, μ-opioid receptor; test: μ-opioid receptor [35S]GTPγS functional assay (HEK-293 cells); type: biochemical
Method: as §2, §3, §4
In TABLE 4, activity response of certain Compounds of the Invention to the μ- and κ-opioid receptors was determined as described above for functional assays using HEK-293 cells.

[4] = target: recombinant human kappa opioid receptor (κ) (Homo sapiens (Human), UniProt P41145); test: κ-opioid receptor radioligand dose-displacement binding assay (HEK-293 cells)
Method: Membranes from HEK-293 cells, CHO cells or U-2 OS cells expressing the recombinant human kappa opioid receptor (κ) were prepared by lysing cells in ice cold hypotonic buffer (2.5 mM MgCl2, 50 mM HEPES, pH 7.4) (10 mL/10 cm dish) followed by homogenization with a tissue grinder/Teflon pestle. Membranes from a cell line naturally expressing kappa opioid receptor can also be used. Membranes were collected by centrifugation at 30,000×g for 15 min at 4° C. and pellets were resuspended in hypotonic buffer to a final concentration of 1-3 mg/mL. Protein concentrations were determined using the BioRad protein assay reagent with bovine serum albumen as standard. Aliquots of κ receptor membranes were stored at −80° C.
Radioligand dose displacement assays used 0.4 nM [^3H]-U69,593 (GE Healthcare, Piscataway, N.J.; 40 Ci/mmole) with 15 μg membrane protein (recombinant κ opioid receptor expressed in HEK 293 cells; in-house prep) in a final volume of 200 μl binding buffer (5% DMSO, 50 mM Trizma base, pH 7.4). Non-specific binding was determined in the presence of 10 μM unlabeled naloxone or U69,593. All reactions were performed in 96-well polypropylene plates for 1 hour at a temperature of about 25° C. Binding reactions were terminated by rapid filtration onto 96-well Unifilter GF/C filter plates (Perkin Elmer, Shelton, Conn.) presoaked in 0.5% polyethylenimine (Sigma). Harvesting was performed using a 96-well tissue harvester (Perkin Elmer, Shelton, Conn.) followed by five filtration washes with 200 μl ice-cold binding buffer. Filter plates were subsequently dried at 50° C. for 1-2 hours. Fifty μl/well scintillation cocktail (Perkin Elmer, Shelton, Conn.) was added and plates were counted in a Packard Top-Count for 1 min/well.
as §1

[5] = target: κ-opioid receptor (Homo sapiens (Human), UniProt P41145); test: κ-opioid receptor functional assay (U-2 OS cells); type: biochemical
Method: Functional [^35S]GTPγS binding assays were conducted as follows. κ opioid receptor membrane solution was prepared by sequentially adding final concentrations of 0.026 μg/μl κ membrane protein (in-house), 10 μg/mL saponin, 3 μM GDP and 0.20 nM [^35S]GTPγS to binding buffer (100 mM NaCl, 10 mM MgCl2, 20 mM HEPES, pH 7.4) on ice. The prepared membrane solution (190 μl/well) was transferred to 96-shallow well polypropylene plates containing 10 μl of 20× concentrated stock solutions of agonist prepared in DMSO. Plates were incubated for 30 min at a temperature of about 25° C. with shaking. Reactions were terminated by rapid filtration onto 96-well Unifilter GF/B filter plates (Perkin Elmer, Shelton, Conn.) using a 96-well tissue harvester (Packard) and followed by three filtration washes with 200 μl ice-cold binding buffer (10 mM NaH2PO4, 10 mM Na2HPO4, pH 7.4). Filter plates were subsequently dried at 50° C. for 2-3 hours. Fifty μl/well scintillation cocktail (Perkin Elmer, Shelton, Conn.) was added and plates were counted in a Packard Top-Count for 1 min/well.
κ GTP EC50 is the concentration of a compound providing 50% of the maximal response for the compound at a κ receptor.
κ GTP Emax (%) is the maximal effect elicited by a compound relative to the effect elicited by U69,593.
The following TABLE 5 provides results on the activity response of certain Compounds of the Invention at the μ- and κ-opioid receptors determined as described above using U-2 OS cells.

[6] = U-2 OS cells, read-out: Opioid Receptor μ EC50
[7] = U-2 OS cells, relative to DAMGO
[8] = HEK-293 cells, relative to DAMGO
[9] = U-2 OS cells, read-out: Opioid Receptor κ EC50
[10] = U-2 OS cells, relative to U69,593

Compound	Emax [2, 7] [%]	Emax [3, 8] [%]	Emax [5, 10] [%]	EC50 [2] [nM]	EC50 [3] [µM]	EC50 [5] [nM]	also measured
1-Chlorophenyl-3-((4bR,6S,8aS,9R)-11-(cyclopropylmethyl)-3-methoxy-5,6,7,8,9,10-hexahydro-9,4b-(epiminoethano)-8a,6-(epoxymethano)phenanthren-6-yl)urea [Compound 25]	–	–	–	–	–	–	Ki [1]: 0.00351 ± 0.00045 µM; EC50 [2, 6]: 4.33 ± 0.15 nM; Opioid Receptor μ Emax (%) [2, 7]: 99.7 ± 0.88%; EC50 ([3]; HEK-293 cells, read-out: Opioid Receptor μ EC50): 0.0866 ± 0.0115 µM; Opioid Receptor μ Emax (%) [3, 8]: 18.3 ± 0.88%; Ki [4]: 0.00256 ± 0.00036 µM; EC50 [5, 9]: 16.1 ± 0.82 nM; Opioid Receptor κ Emax (%) [5, 10]: 121.3 ± 4.67%
COc1ccc2c(c1)[C@]13CCN(CC4CC4)[C@H](C2)[C@]12CC[C@@](N(Cc1ccccc1)Cc1ccccc1)(CO2)C3 [Compound 7, (4bR,6S,8aS,9R)—N,N-dibenzyl-11-(cyclopropylmethyl)-3-methoxy-5,6,7,8,9,10-hexahydro-9,4b-(epiminoethano)-8a,6-(epoxymethano)phenanthren-6-amine]	84.3 ± 2.85	5.67 ± 1.86	112 ± 3.93	–	–	–	Ki [1]: 0.0643 ± 0.0216 µM; EC50 [2, 6]: 26.4 ± 3.96 nM; EC50 ([3]; HEK-293 cells, bound given in μM, read-out: Opioid Receptor μ EC50): > 20 µM; Ki [4]: 0.00535 ± 0.00091 µM; EC50 [5, 9]: 2.99 ± 0.33 nM
COc1ccc2c(c1)[C@]13CCN(CC4CC4)[C@H](C2)[C@]12CC[C@@](N(C)C)(CO2)C3 [Compound 28, (4bR,6S,8aS,9R)-11-(cyclopropylmethyl)-3-methoxy-N,N-dimethyl-5,6,7,8,9,10-hexahydro-9,4b-(epiminoethano)-8a,6-(epoxymethano)phenanthren-6-amine]	68.7 ± 0.67	18.8 ± 1.46	107 ± 2.4	339 ± 31.6	1.92 ± 0.693	132 ± 25.7	–
COc1ccc2c(c1)[C@]13CCN(CC4CC4)[C@H](C2)[C@]12CC[C@@](Nc1ccc(C(C)(C)C)cc1)(CO2)C3 [Compound 29, (4bR,6S,8aS,9R)—N-(4-tert-butyl)phenyl-11-(cyclopropylmethyl)-3-methoxy-5,6,7,8,9,10-hexahydro-9,4b-(epiminoethano)-8a,6-(epoxymethano)phenanthren-6-amine]	43.3 ± 2.4	7.5 ± 1.55	113 ± 4.41	2.02 ± 0.28	> 20	3.08 ± 0.32	–
COc1ccc2c(c1)[C@]13CCN(CC4CC4)[C@H](C2)[C@]12CC[C@@](Nc1ccccc1)(CO2)C3 [Compound 30, (4bR,6S,8aS,9R)-11-(cyclopropylmethyl)-3-methoxy-N-phenyl-5,6,7,8,9,10-hexahydro-9,4b-(epiminoethano)-8a,6-(epoxymethano)phenanthren-6-amine]	69 ± 2.65	20.3 ± 0.67	105 ± 3.53	9.93 ± 0.87	0.0836 ± 0.0234	0.14 ± 0.039	–
COc1ccc2c(c1)[C@]13CCN(CC4CC4)[C@H](C2)[C@]12CC[C@@](N1CCOCC1)(CO2)C3 [Compound 31, (4bR,6S,8aS,9R)-11-(cyclopropylmethyl)-3-methoxy-6-morpholino-5,6,7,8,9,10-hexahydro-9,4b-(epiminoethano)-8a,6-(epoxymethano)phenanthrene]	38.7 ± 2.96	9 ± 1.15	103.7 ± 0.33	147 ± 7.61	0.887 ± 0.278	30 ± 7.2	–
COc1ccc2c(c1)[C@]13CCN(CC4CC4)[C@H](C2)[C@]12CC[C@@](N1CCCC1)(CO2)C3 [Compound 32, (4bR,6S,8aS,9R)-11-(cyclopropylmethyl)-3-methoxy-6-(pyrrolidin-1-yl)-5,6,7,8,9,10-hexahydro-9,4b-(epiminoethano)-8a,6-(epoxymethano)phenanthrene]	69 ± 2.89	20.7 ± 0.33	104 ± 3.61	255 ± 26.6	1.38 ± 0.234	26.6 ± 5.92	–
COc1ccc2c(c1)[C@]13CCN(CC4CC4)[C@H](C2=O)[C@]12CC[C@](O)(C3)C(=O)O2 [Compound 33, (4bR,6S,8aS,9S)-11-(cyclopropylmethyl)-6-hydroxy-3-methoxy-5,6,7,8-tetrahydro-9,4b-(epiminoethano)-8a,6-(epoxymethano)phenanthrene-10,15(9H)-dione]	–	–	–	–	–	–	Ki ([1]; bound given in μM): > 20 µM; Ki [4]: 3.35 ± 0.325 µM
COc1ccc2c(c1)[C@]13CCN(CC4CC4)[C@H]([C@@H]2O)[C@]12CC[C@](O)(C3)C(=O)O2 [Compound 34, (4bR,6S,8aS,9R,10R)-11-(cyclopropylmethyl)-6,10-dihydroxy-3-methoxy-5,6,7,8,9,10-hexahydro-9,4b-(epiminoethano)-8a,6-(epoxymethano)phenanthren-15-one]	–	–	–	–	–	–	Ki ([1]; bound given in μM): > 20 µM; Ki ([4]; bound given in μM): > 20 µM
CN1CC[C@]23C[C@@]4(N)CC[C@@]2(OC4)[C@H]1Cc1ccc(O)cc13 [Compound 35, (4bR,6S,8aS,9R)-6-amino-11-methyl-5,6,7,8,9,10-hexahydro-9,4b-(epiminoethano)-8a,6-(epoxymethano)phenanthren-3-ol]	–	50.3 ± 2.33	–	–	0.291 ± 0.0232	–	–
CN[C@]12CC[C@@]3(OC1)[C@H]1Cc4ccc(O)cc4[C@@]3(CCN1CC1CC1)C2 [Compound 37, (4bR,6S,8aS,9R)-11-(cyclopropylmethyl)-6-(methylamino)-5,6,7,8,9,10-hexahydro-9,4b-(epiminoethano)-8a,6-(epoxymethano)phenanthren-3-ol]	–	19 ± 1	–	–	0.00344 ± 0.00078	–	–
